Assay results published in ChEMBL document CHEMBL6134891, “Thienopyrimidinone Derivatives as a GluN2B/C/D Biased, Positive Allosteric Modulator of the N-Methyl-d-Aspartate Receptor” (J Med Chem, 2025).
pEC50, pKi: −log10 of the molar value. ≈ marks a conversion by molar mass, not a printed value.

Assays:
[1] = Kinetic solubility of compound in PBS at pH 7.3 by nephelometry
[2] = Stability in human plasma assessed as half life
[3] = Stability in mouse plasma assessed as half life
[4] = Stability in rat plasma assessed as half life
[5] = Apparent permeability in MDCK-MDR1 cells; conditions: dog
[6] = Efflux ratio of apparent permeability in MDCK-MDR1 cells; conditions: dog
[7] = target: T1, Glutamate receptor ionotropic, NMDA 2B (Rattus norvegicus, UniProt P35439+Q00960)
Description: (§1) Positive allosteric modulation of recombinant rat GluN2B receptor expressed in Xenopus oocytes assessed as glutamate/glycine-induced potentiation of current by 2EVC method

[8] = target: T2, Glutamate receptor ionotropic, NMDA 2C (Rattus norvegicus, UniProt P35439+Q00961)
Description: (§2) Positive allosteric modulation of recombinant rat GluN2C receptor expressed in Xenopus oocytes assessed as glutamate/glycine-induced potentiation of current by 2EVC method

[9] = target: T3, Glutamate receptor ionotropic, NMDA 2D (Rattus norvegicus, UniProt P35439+Q62645)
Description: (§3) Positive allosteric modulation of recombinant rat GluN2D receptor expressed in Xenopus oocytes assessed as glutamate/glycine-induced potentiation of current by 2EVC method

in vitro = conditions: human, liver microsomes
Description: Intrinsic clearance in human liver microsomes at 3 uM preincubated for 5 mins followed by NADPH addition measured up to 30 mins by LC-MS/MS analysis

Translocator protein = Translocator protein (Homo sapiens, UniProt P30536); assay: Inhibition of peripheral benzodiazepine receptor (unknown origin) by radioligand binding assay
[10] = target: T1, Glutamate receptor ionotropic, NMDA 2B; remark: listed apart in the source
Description: Positive allosteric modulation of recombinant rat GluN2B receptor expressed in Xenopus laevis stage VI oocytes assessed as glutamate/glycine-induced potentiation of current by 2EVC method

[11] = target: T2, Glutamate receptor ionotropic, NMDA 2C; remark: listed apart in the source
Description: Positive allosteric modulation of recombinant rat GluN2C receptor expressed in Xenopus laevis stage VI oocytes assessed as glutamate/glycine-induced potentiation of current by 2EVC method

[12] = target: T3, Glutamate receptor ionotropic, NMDA 2D; remark: listed apart in the source
Description: Positive allosteric modulation of recombinant rat GluN2D receptor expressed in Xenopus laevis stage VI oocytes assessed as glutamate/glycine-induced potentiation of current by 2EVC method

Glutamate NMDA receptor = assay: Positive allosteric modulation of NMDAR in rat hippocampal neurons by Whole-cell and excised-patch recording method; conditions: hippocampal neuron
[13] = target: Glutamate receptor ionotropic, NMDA 2B (Rattus norvegicus, UniProt Q00960); conditions: oocyte
Description: as §1

[14] = target: Glutamate receptor ionotropic, NMDA 2C (Rattus norvegicus, UniProt Q00961); conditions: oocyte
Description: as §2

[15] = target: Glutamate receptor ionotropic, NMDA 2D (Rattus norvegicus, UniProt Q62645); conditions: oocyte
Description: as §3

[16] = target: T4, Glutamate receptor ionotropic, NMDA 2A (Homo sapiens, UniProt Q05586+Q12879); assay: Positive allosteric modulation of GluN2A receptor (unknown origin) expressed in Doxycycline-inducible HEK293 cells by calcium influx assay
[17] = target: T5, Glutamate receptor ionotropic, NMDA 2B (Homo sapiens, UniProt Q05586+Q13224); assay: Positive allosteric modulation of GluN2B receptor (unknown origin) expressed in Doxycycline-inducible HEK293 cells by calcium influx assay
[18] = target: T6, Glutamate receptor ionotropic, NMDA 2C (Homo sapiens, UniProt Q05586+Q14957); assay: Positive allosteric modulation of GluN2C receptor (unknown origin) expressed in Doxycycline-inducible HEK293 cells by calcium influx assay
[19] = target: T7, Glutamate receptor ionotropic, NMDA 2D (Homo sapiens, UniProt O15399+Q05586); assay: Positive allosteric modulation of GluN2D receptor (unknown origin) expressed in Doxycycline-inducible HEK293 cells by calcium influx assay
[20] = target: T5, Glutamate receptor ionotropic, NMDA 2B; assay: Positive allosteric modulation of human GluN2B receptor expressed in HEK293 cells by Whole-cell patch-clamp method
[21] = target: T6, Glutamate receptor ionotropic, NMDA 2C; assay: Positive allosteric modulation of human GluN2C receptor expressed in HEK293 cells by Whole-cell patch-clamp method
[22] = target: T4, Glutamate receptor ionotropic, NMDA 2A; assay: Positive allosteric modulation of GluN2A receptor (unknown origin)
[23] = target: T6, Glutamate receptor ionotropic, NMDA 2C; assay: Positive allosteric modulation of GluN2C receptor (unknown origin)
[24] = target: T7, Glutamate receptor ionotropic, NMDA 2D; assay: Positive allosteric modulation of GluN2D receptor (unknown origin)

Chain of Glutamate receptor ionotropic, NMDA 2B (Rattus norvegicus, UniProt Q00960) (Q00960 whole entry): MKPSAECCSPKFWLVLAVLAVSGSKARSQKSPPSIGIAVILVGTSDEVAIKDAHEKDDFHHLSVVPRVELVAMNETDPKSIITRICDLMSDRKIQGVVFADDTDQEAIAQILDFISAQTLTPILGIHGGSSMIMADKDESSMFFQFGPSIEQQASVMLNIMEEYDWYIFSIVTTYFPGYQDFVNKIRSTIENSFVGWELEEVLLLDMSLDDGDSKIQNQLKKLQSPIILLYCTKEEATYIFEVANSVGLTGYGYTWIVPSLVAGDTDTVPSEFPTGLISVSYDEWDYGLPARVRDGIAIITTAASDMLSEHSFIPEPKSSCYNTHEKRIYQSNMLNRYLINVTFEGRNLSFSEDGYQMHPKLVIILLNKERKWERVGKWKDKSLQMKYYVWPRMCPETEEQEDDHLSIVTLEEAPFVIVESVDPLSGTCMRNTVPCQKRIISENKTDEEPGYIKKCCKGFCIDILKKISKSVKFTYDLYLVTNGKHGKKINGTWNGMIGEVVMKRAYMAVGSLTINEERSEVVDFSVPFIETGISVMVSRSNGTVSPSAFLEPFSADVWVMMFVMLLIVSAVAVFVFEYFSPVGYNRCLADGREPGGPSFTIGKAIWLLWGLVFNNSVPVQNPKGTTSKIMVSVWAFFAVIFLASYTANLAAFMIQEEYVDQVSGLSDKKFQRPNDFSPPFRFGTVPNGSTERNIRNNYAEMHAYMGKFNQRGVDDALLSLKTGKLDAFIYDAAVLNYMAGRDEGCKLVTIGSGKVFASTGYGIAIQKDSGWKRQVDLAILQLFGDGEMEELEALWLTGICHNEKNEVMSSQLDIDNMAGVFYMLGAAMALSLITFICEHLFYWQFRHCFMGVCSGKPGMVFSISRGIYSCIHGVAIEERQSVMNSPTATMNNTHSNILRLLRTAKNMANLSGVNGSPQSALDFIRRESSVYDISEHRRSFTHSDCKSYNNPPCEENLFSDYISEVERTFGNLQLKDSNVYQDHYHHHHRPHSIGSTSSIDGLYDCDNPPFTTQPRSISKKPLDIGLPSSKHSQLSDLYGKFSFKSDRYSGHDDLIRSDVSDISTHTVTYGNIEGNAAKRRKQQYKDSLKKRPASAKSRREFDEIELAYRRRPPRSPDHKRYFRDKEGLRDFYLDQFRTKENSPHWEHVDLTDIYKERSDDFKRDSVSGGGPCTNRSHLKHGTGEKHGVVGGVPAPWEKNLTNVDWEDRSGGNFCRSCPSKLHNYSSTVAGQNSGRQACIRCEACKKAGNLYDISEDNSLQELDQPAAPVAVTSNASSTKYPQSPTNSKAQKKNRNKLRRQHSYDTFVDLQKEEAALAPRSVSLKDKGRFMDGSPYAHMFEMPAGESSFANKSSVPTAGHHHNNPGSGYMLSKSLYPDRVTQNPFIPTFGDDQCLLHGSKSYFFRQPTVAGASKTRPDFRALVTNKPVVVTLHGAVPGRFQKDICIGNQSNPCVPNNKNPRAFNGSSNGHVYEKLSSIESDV
T1 sequence (Q00960 whole entry, one chain of several): as the sequence (Q00960 whole entry) above
T3 sequence (Q62645 whole entry, one chain of several): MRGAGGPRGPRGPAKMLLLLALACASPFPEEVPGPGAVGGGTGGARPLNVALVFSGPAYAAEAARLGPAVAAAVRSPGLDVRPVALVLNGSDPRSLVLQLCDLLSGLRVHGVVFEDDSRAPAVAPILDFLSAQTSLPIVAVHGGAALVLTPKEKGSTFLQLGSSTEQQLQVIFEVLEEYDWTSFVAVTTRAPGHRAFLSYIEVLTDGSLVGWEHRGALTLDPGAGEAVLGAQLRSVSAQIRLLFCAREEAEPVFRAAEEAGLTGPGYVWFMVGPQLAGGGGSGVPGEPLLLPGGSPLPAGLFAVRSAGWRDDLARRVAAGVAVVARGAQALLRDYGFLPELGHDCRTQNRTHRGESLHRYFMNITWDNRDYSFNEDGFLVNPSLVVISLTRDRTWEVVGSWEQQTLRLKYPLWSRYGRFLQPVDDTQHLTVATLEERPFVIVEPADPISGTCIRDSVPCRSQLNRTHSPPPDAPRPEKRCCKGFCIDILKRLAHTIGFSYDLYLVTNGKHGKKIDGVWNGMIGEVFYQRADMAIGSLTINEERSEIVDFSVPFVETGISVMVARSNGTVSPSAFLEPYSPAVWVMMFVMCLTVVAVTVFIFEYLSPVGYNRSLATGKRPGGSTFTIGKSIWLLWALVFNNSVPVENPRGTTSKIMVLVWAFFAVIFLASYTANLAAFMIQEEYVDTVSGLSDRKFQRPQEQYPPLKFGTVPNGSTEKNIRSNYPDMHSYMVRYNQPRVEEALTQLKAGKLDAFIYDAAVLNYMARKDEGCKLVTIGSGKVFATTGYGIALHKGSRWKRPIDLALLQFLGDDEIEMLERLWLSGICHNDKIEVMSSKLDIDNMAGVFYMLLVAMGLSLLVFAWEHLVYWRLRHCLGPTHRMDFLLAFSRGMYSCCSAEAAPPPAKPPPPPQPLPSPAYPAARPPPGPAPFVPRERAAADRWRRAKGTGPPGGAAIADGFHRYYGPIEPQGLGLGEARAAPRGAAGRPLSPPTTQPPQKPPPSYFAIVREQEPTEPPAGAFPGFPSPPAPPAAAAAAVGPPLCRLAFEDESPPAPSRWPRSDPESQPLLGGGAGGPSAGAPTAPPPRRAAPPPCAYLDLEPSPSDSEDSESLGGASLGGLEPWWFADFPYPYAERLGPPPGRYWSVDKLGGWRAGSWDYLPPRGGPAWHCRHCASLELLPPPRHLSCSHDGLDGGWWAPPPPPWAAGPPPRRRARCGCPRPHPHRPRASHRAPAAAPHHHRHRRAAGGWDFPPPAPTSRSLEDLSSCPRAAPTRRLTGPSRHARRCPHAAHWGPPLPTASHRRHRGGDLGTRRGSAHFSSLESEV
Chain of Glutamate receptor ionotropic, NMDA 2D (Rattus norvegicus, UniProt Q62645) (Q62645 whole entry): as the sequence (Q62645 whole entry, one chain of several) above
Chain of Translocator protein (P30536 whole entry): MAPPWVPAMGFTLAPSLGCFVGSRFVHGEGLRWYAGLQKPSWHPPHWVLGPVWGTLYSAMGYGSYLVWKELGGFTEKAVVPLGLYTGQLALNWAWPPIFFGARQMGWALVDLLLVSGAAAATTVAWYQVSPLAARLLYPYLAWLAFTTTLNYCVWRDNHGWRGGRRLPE

pEC50 [7] | pEC50 [8] | pEC50 [9] | Compound | also measured
6.44 | 6.03 | 6.05 | CC1(F)CN(C(=O)Cn2cnc3sc(C#N)c(-c4ccc(F)c(Br)c4)c3c2=O)C1 | solubility kinetic [1]: 45 µM (≈ 21.6 µg/mL); half-life [2]: > 240 min; half-life [3]: > 240 min; half-life [4]: > 240 min; Papp [5]: 9.36 ×10⁻⁶ cm/s; efflux ratio [6]: 4.66; microsomal CLint at 0.5 h, 3 µM (in vitro): 16 µL/min/mg
6.24 | 6.09 | 5.96 | C#Cc1sc2ncn(CC(=O)N3CC(C)(F)C3)c(=O)c2c1-c1ccc(F)c(Br)c1 | pKi (Translocator protein): 6.26
5.64 | 5.49 | 5.21 | CC1(F)CN(C(=O)Cn2cnc3sc(C(F)(F)F)c(-c4ccc(F)c(Br)c4)c3c2=O)C1 | 
5.77 | 5.35 | 5.25 | Cc1sc2ncn(CC(=O)N3CC(C)(F)C3)c(=O)c2c1-c1ccc(Cl)c(F)c1 | 
5.92 | 5.66 | 5.31 | Cc1sc2ncn(CC(=O)N3CC(C)(F)C3)c(=O)c2c1-c1cccc(Cl)c1 | 
5.60 | 5.18 | 4.89 | Cc1sc2ncn(CC(=O)N3CCC(C)C3)c(=O)c2c1-c1cccc(Br)c1 (stereo not given) | 
5.55 | 5.28 | 4.96 | Cc1sc2ncn(CC(=O)N3CC(C)(C)C3)c(=O)c2c1-c1cccc(Br)c1 | 
5.54 | 5.04 | 4.89 | Cc1sc2ncn(CC(=O)N3CCC(C)(F)C3)c(=O)c2c1-c1cccc(Br)c1 (stereo not given) | 
5.70 | 5.28 | 5.24 | Cc1sc2ncn(CC(=O)N3CC(C)(F)C3)c(=O)c2c1-c1ccc(F)c(OC(C)C)c1 | 
6.13 | 6.06 | 5.68 | CC1(F)CN(C(=O)Cn2cnc3scc(-c4ccc(F)c(Br)c4)c3c2=O)C1 | solubility kinetic [1]: 33 µM (≈ 15 µg/mL); half-life [2]: > 240 min; half-life [3]: > 240 min; half-life [4]: > 240 min; Papp [5]: 16.6 ×10⁻⁶ cm/s; efflux ratio [6]: 2.04; microsomal CLint at 0.5 h, 3 µM (in vitro): 14 µL/min/mg
 |  |  | Cc1sc2ncn(CC(=O)N3CCCC3)c(=O)c2c1-c1cccc(Br)c1 | solubility kinetic [1]: > 100 µM; half-life [2]: > 240 min; half-life [3]: > 240 min; half-life [4]: > 240 min; pEC50 [10]: 5.00; pEC50 [11]: 4.92; pEC50 [12]: 4.74; microsomal CLint at 0.5 h, 3 µM (in vitro): 50 µL/min/mg
5.59 | 5.17 | 4.93 | Cc1sc2ncn(CC(=O)N3CCC(F)(F)C3)c(=O)c2c1-c1cccc(Br)c1 | 
5.70 | 5.28 | 5.16 | Cc1sc2ncn(CC(=O)N3CC(C)(F)C3)c(=O)c2c1-c1cccc(Cl)c1F | 
 |  |  | CC(C)[C@@H](O)CC[C@@H](C)[C@H]1CC[C@H]2[C@@H]3CC=C4C[C@@H](O)CC[C@]4(C)[C@H]3CC[C@]12C | pEC50 (Glutamate NMDA receptor): 5.92
5.12 | 4.92 |  | Cc1sc2ncn(CC(=O)N3CC(C)C3)c(=O)c2c1-c1cccc(Br)c1 | 
5.70 | 5.52 | 5.20 | Cc1sc2ncn(CC(=O)N3CC(C)(F)C3)c(=O)c2c1-c1ccc2ccccc2c1 | 
4.85 |  |  | Cc1sc2ncn(CC(=O)N3CC[C@@H](F)C3)c(=O)c2c1-c1cccc(Br)c1 | 
4.68 |  |  | Cc1sc2ncn(CC(=O)N3CCC[C@@H]3C)c(=O)c2c1-c1cccc(Br)c1 | 
5.55 | 4.89 | 4.89 | Cc1sc2ncn(CC(=O)N3CC(C)(F)C3)c(=O)c2c1-c1ccc2c(c1)OC(F)(F)O2 | 
 | 4.89 | 4.96 | CCCC1(F)CN(C(=O)Cn2cnc3sc(C)c(-c4cccc(Br)c4)c3c2=O)C1 | EC50 [13]: Not_active
 |  |  | Cc1sc2ncn(CC(=O)N3CC[C@@H](O)C3)c(=O)c2c1-c1cccc(Br)c1 | EC50 [13]: Not_active; EC50 [14]: Not_active; EC50 [15]: Not_active

pEC50 [7] | pEC50 [8] | pEC50 [9] | Compound | also measured
5.70 | 5.43 | 5.27 | Cc1sc2ncn(CC(=O)N3CC(F)(C4CC4)C3)c(=O)c2c1-c1cccc(Br)c1 | 
5.96 | 5.59 | 5.38 | Cc1sc2ncn(CC(=O)N3CC(C)(F)C3)c(=O)c2c1-c1cccc(OC(F)(F)F)c1 | 
6.11 | 5.70 | 5.55 | Cc1sc2ncn(CC(=O)N3CC(C)(F)C3)c(=O)c2c1-c1cccc(Br)c1 | 
5.96 | 5.66 | 5.42 | Cc1sc2ncn(CC(=O)N3CC(C)(F)C3)c(=O)c2c1-c1cccc(C(F)(F)F)c1 | 
4.64 | 4.70 |  | Cc1sc2ncn(CC(=O)N3CCC3)c(=O)c2c1-c1cccc(Br)c1 | 
 |  |  | C#CC1(F)CN(C(=O)Cn2cnc3sc(C)c(-c4cccc(Br)c4)c3c2=O)C1 | EC50 [13]: Not_active; EC50 [14]: Not_active; EC50 [15]: Not_active
5.00 |  |  | Cc1sc2ncn(CC(=O)N3CC(C)(F)C3)c(=O)c2c1-c1ccc2ccn(C)c2c1 | 
4.82 | 4.92 | 4.60 | Cc1sc2ncn(CC(=O)N3CC[C@H](F)C3)c(=O)c2c1-c1cccc(Br)c1 | 
 |  |  | CCCc1nc2[nH]c(C)c(NS(=O)(=O)c3ccc(C4CCCCC4)cc3)c(=O)n2n1 | pEC50 [16]: 5.52; pEC50 [17]: 5.52; pEC50 [18]: 5.52; pEC50 [19]: 5.52
5.82 | 5.41 | 5.35 | Cc1sc2ncn(CC(=O)N3CC(C)(F)C3)c(=O)c2c1-c1cc(Cl)ccc1F | 
6.22 | 5.80 | 5.62 | Cc1sc2ncn(CC(=O)N3CC(C)(F)C3)c(=O)c2c1-c1ccc(F)c(C(F)(F)F)c1 | 
6.39 | 6.07 | 6.00 | Cc1sc2ncn(CC(=O)N3CC(C)(F)C3)c(=O)c2c1-c1ccc(Cl)c(Cl)c1 | 
6.15 | 5.92 | 5.68 | Cc1sc2ncn(CC(=O)N3CC(C)(F)C3)c(=O)c2c1-c1ccc(F)c(Cl)c1 | 
6.01 | 5.62 | 5.44 | CCC1(F)CN(C(=O)Cn2cnc3sc(C)c(-c4cccc(Br)c4)c3c2=O)C1 | 
5.74 | 5.50 | 5.33 | CCc1sc2ncn(CC(=O)N3CC(C)(F)C3)c(=O)c2c1-c1ccc(F)c(Br)c1 | 
5.80 | 5.03 | 5.13 | Cc1sc2ncn(CC(=O)N3CC(C)(F)C3)c(=O)c2c1-c1cc(F)cc(Cl)c1 | 
 |  |  | C[C@@H](O)[C@@H](C(N)=O)N1C[C@@]2(CCCN2C(=O)OC(C)(C)C)C1=O [ZELQUISTINEL] | pEC50 [20]: 5.01; pEC50 [21]: 5.01
6.48 | 6.20 | 5.96 | Cc1sc2ncn(CC(=O)N3CC(C)(F)C3)c(=O)c2c1-c1ccc(F)c(Br)c1 | solubility kinetic [1]: 34 µM (≈ 15.9 µg/mL); half-life [2]: > 240 min; half-life [3]: > 240 min; half-life [4]: > 240 min; Papp [5]: 19.6 ×10⁻⁶ cm/s; efflux ratio [6]: 1.98; microsomal CLint at 0.5 h, 3 µM (in vitro): 29 µL/min/mg
 |  |  | C[C@H](CC[C@](C)(O)C(F)(F)F)[C@H]1CC[C@H]2[C@@H]3CC=C4C[C@@](C)(O)CC[C@]4(C)[C@H]3CC[C@]12C [DALZANEMDOR] | pEC50 [22]: 7.10; pEC50 [23]: 7.10; pEC50 [24]: 7.10
5.89 | 5.38 | 5.32 | Cc1sc2ncn(CC(=O)N3CC(C)(F)C3)c(=O)c2c1-c1ccc(F)c(C#N)c1 | 
